Read-outs that look alike come from different tables or passages of the source.
Assays:
Type in all cases: cell-based
WEE1 = molecular target: T1, WEE1 (Homo sapiens, UniProt P30291+Q96SW2); assay: WEE1-ePL degradation assay (293T-LentiX, InCELL Hunter luminescence, 4 hr); conditions: for DC50: LentiX-HEK293T cells expressing WEE1-ePL, 4 hr incubation, read-out: 293T-LentiX WEE1-ePL Degradation 4 hr EC50; for 293T-LentiX WEE1-ePL Degradation 4 hr YMin (%): lower limit of fit, % of DMSO control signal remaining
T1 construct: C-terminal ePL-tagged (DiscoverX, Fremont, CA) full-length WEE1 expression construct; expressed in transfected cells; host or cells: LentiX-HEK293T (Invitrogen), lentivirally transduced; the cells also over-express GSPT1-GN
Method in brief: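 EC50 comes from a four-parameter logistic fit of ePL luminescence (InCELL Hunter), with DMSO control defining Ymax. Compounds ran as 10-point 3-fold dilutions from 1 or 10 µM for 4 h at 37 °C. Cells were HEK293T-LentiX with ePL-tagged full-length WEE1 and over-expressed Cereblon-resistant GSPT1-GN.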

MKN45 cells = assay: MKN45 cell proliferation assay (Cell-Titer-Glo, 120 hr); conditions: for EC50: read-out: MKN45 Cell Prolif. 120 hr EC50; for MKN45 Cell Prolif. 120 hr YMin (%): minimal percent of DMSO control observed
From the text: (§1) MKN45 cells were obtained from Celgene internal cell banks and cultured in RPMI complete media (RPMI-1640, 1× Penicillin/Streptomycin, 1× glutamine, 1× Sodium Pyruvate, Non-essential Amino Acids, 10% Fetal Bovine serum, all component from Thermo-Fisher). MDA-MB-231 cells were obtained from the ATCC (HTB-26) and cultured in RPMI-1640 and 10% Fetal Bovine serum; MDA-MB-231 cells were expanded and stored as aliquots in liquid nitrogen in Celgene internal cell banks. Compounds were dispensed into 384-well plates using an HP DE300 compound printer in triplicate with 8 compounds on each plate. Compounds were dispensed into 384-well black clear bottom plates (Corning #3764BC) using an EDC acoustic dispenser at BMS. For each compound, a 10-point dose response was printed at half-log dilutions starting at either 1 uM or 10 uM in triplicate for MKN45 cells and in duplicate for MDA-MB-231 cells. The DMSO concentration was kept constant for a final assay concentration of 0.1% per well assuming 50 ul final media volume. Compound plates were sealed and frozen at −20 C until use.
(§2) For each assay batch, compound plates were thawed and allowed to reach room temperature, and cells were seeded at 400 MKN45 cells per well, or 800 MDA-MB-231 cells per well, in 50 ul media listed above for each cell line. After 120 hours of incubation at 37 C and 5% CO2, cells were lysed by addition of 25 μL of Cell-Titer-Glo Reagent (Promega Corporation, Madison, WI), as per manufacturer's instructions, protected from light, shaken for 45 minutes, and total luminescence read by a Perkin Elmer Envision plate reader. Total luminescence signal is linearly correlated with cell number remaining in the well.
(§3) Luminescence data was processed per plate by subtracting reagent-only “blank” well luminescence from all measured values and calculating a percent of DMSO control value for each treatment well. Then, to determine the half-maximal effective concentration (EC50) values for cell growth inhibition, a four parameter logistic model was fit to the data for each DMSO-normalized compound: Sigmoidal Dose-Response Model: (FIT=(A+((B−A)/1+((C/x)^D)))) where C is the inflection point ([…]), D is the Hill slope, and A and B are the low and high limits of the fit respectively. The lower limit of the fit (value A) is referred to as Ymin-calculated. The minimal percent of DMSO control that is observed in the concentrations tested for each compound is labeled as “Ymin-obs”, and was recorded and reported in the tables. Sigmoidal fit curves were processed and evaluated using Activity Base (IDBS, Alameda, CA) or using Dotmatics (Boston, MA). N/A=not available at the present time.

MDA-MB-231 cells = assay: MDA-MB-231 cell proliferation assay (Cell-Titer-Glo, 120 hr); conditions: for EC50: read-out: MDA-MB 231 Cell Prolif. 120 hr EC50; for MDA-MB 231 Cell Prolif. 120 hr YMin (%): minimal percent of DMSO control observed
From the text: as §1, §2, §3

[1] = Homo sapiens, MDA-MB-231, 120 h

T1 sequence (P30291 whole entry): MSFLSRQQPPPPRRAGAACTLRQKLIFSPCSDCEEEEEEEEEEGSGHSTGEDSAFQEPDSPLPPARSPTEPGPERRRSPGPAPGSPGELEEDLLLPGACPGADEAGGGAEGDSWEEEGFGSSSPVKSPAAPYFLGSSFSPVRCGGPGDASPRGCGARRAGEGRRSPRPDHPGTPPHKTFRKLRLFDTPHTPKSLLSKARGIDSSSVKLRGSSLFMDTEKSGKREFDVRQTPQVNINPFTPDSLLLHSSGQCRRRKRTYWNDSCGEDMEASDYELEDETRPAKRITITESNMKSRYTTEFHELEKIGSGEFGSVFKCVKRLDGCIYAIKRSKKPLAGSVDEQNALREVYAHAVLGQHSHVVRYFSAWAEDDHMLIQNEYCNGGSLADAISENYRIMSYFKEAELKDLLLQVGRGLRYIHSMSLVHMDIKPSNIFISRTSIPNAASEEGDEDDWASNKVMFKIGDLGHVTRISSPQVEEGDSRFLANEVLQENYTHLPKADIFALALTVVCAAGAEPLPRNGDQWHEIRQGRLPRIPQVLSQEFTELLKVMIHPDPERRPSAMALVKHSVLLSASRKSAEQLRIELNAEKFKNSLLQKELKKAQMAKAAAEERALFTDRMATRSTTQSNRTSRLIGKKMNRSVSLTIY
T1 sequence (Q96SW2 whole entry): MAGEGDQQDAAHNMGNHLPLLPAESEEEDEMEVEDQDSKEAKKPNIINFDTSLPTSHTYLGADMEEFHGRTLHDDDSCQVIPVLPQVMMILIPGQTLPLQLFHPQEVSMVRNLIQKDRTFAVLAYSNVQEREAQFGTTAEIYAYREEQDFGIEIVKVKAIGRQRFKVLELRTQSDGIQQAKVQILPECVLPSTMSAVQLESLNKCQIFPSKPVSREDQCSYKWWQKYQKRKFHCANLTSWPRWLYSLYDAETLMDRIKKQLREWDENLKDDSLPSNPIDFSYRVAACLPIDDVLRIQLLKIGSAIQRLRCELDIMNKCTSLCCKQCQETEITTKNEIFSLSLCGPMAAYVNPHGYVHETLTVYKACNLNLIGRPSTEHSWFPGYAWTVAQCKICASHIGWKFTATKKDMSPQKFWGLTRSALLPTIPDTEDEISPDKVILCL
T1 sequence (Q16531 whole entry partner): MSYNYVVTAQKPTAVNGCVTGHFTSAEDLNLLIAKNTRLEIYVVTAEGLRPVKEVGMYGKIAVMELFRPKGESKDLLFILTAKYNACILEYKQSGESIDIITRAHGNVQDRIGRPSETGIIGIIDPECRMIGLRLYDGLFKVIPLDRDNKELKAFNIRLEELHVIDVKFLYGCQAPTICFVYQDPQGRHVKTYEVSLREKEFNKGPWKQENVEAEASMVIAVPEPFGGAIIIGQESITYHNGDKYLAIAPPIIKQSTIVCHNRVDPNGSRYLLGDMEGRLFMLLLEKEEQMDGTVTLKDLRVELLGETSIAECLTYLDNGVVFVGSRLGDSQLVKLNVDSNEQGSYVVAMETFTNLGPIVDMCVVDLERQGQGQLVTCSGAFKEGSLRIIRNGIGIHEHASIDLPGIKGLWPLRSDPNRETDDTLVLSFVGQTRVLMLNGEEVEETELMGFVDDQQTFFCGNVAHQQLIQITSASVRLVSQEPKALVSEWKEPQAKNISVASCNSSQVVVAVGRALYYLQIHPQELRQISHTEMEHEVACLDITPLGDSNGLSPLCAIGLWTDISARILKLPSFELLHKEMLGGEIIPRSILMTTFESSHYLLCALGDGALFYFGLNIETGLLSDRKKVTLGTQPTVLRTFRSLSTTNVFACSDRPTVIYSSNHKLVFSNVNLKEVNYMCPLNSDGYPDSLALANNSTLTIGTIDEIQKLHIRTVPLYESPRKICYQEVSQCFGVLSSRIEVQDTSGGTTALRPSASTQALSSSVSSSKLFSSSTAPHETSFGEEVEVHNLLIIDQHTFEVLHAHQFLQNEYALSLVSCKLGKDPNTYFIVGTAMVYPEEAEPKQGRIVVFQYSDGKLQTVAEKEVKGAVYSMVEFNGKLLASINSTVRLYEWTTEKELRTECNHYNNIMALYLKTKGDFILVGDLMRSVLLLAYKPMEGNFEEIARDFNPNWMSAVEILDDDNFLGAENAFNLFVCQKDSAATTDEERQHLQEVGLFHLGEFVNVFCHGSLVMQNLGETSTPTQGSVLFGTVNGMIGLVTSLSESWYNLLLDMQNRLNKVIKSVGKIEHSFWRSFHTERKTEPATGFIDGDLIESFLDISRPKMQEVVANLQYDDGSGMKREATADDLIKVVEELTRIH

| SMILES | DC50 (WEE1) | 293T-LentiX WEE1-ePL Degradation 4 hr YMin (%) (WEE1) | EC50 (MKN45 cells; Homo sapiens, MKN-45, 120 h) | MKN45 Cell Prolif. 120 hr YMin (%) (MKN45 cells) | EC50 (MDA-MB-231 cells; [1]) | MDA-MB 231 Cell Prolif. 120 hr YMin (%) (MDA-MB-231 cells) | EC50 (MKN45 cells) | EC50 (MDA-MB-231 cells) |
| --- | --- | --- | --- | --- | --- | --- | --- | --- |
| COC(C)(C)[C@@H]1CN(Cc2ccc3nc(C4CCOCC4)ccc3c2)C[C@H]1Oc1ccc2c(c1)CN([C@H]1CCC(=O)NC1=O)C2=O (racemic) [Example 138, (3S)-3-(5-((4-(2-methoxypropan-2-yl)-1-((2-(tetrahydro-2H-pyran-4-yl)quinolin-6-yl)methyl)pyrrolidin-3-yl)oxy)-1-oxoisoindolin-2-yl)piperidine-2,6-dione] | 3 nM | 48.1% | 348 nM | 80.2% | ≥ 10300 nM | 94.6% | – | – |
| COC[C@@H]1CN(Cc2cc3ccc(N4CCN(C(C)=O)C5(COC5)C4)cc3cn2)C[C@H]1Oc1ccc2c(c1)CN([C@H]1CCC(=O)NC1=O)C2=O [Example 87, (3S)-3-(5-{[(3S,4S)-1-[(7-{5-acetyl-2-oxa-5,8-diazaspiro[3.5]nonan-8-yl}isoquinolin-3-yl)methyl]-4-(methoxymethyl)pyrrolidin-3-yl]oxy}-1-oxo-2,3-dihydro-1H-isoindol-2-yl)piperidine-2,6-dione] | 11 nM | 32.2% | 7 nM | 9.7% | 112 nM | 31.8% | – | – |
| O=C1CC[C@H](N2Cc3cc(O[C@H]4CN(Cc5cc(F)c6nc(C7CCOCC7)ccc6c5)C[C@@H]4C4CCCC4)ccc3C2=O)C(=O)N1 (relative stereo) [Example 146, (S)-3-(5-(((3R*,4S*)-4-Cyclopentyl-1-((8-fluoro-2-(tetrahydro-2H-pyran-4-yl)-quinolin-6-yl)methyl)pyrrolidin-3-yl)oxy)-1-oxoisoindolin-2-yl)piperidine-2,6-dione] | 1 nM | 24.2% | 3 nM | 10.8% | 585 nM | 50.7% | – | – |
| O=C1CCC(N2C(=O)c3ccc(O[C@H]4CCN(Cc5cc(F)c6nc(C7CCOCC7)ccc6c5)C4)cc3C2=O)C(=O)N1 (single isomer, unassigned) [Example 26, 2-((R*)-2,6-dioxopiperidin-3-yl)-5-(((S)-1-((8-fluoro-2-(tetrahydro-2H-pyran-4-yl)quinolin-6-yl)methyl)pyrrolidin-3-yl)oxy)isoindoline-1,3-dione] | 8 nM | 32.8% | – | 12.3% | – | 53.8% | 39 nM | 999 nM |
| COC[C@@H]1CN(Cc2cc(F)c3nc(C4CCCCO4)ccc3c2)C[C@H]1Oc1ccc2c(c1)CN([C@H]1CCC(=O)NC1=O)C2=O (relative stereo) [Example 69, rel-(3S)-3-(5-{[(3S,4S)-1-{[8-fluoro-2-(oxan-2-yl)quinolin-6-yl]methyl}-4-(methoxymethyl)pyrrolidin-3-yl]oxy}-1-oxo-2,3-dihydro-1H-isoindol-2-yl)piperidine-2,6-dione] | – | 27.7% | 1 nM | 8.6% | 9 nM | 20.5% | – | – |
| O=C1CC[C@H](N2Cc3cc(O[C@@H]4CN(Cc5cc(F)c6ncc(N7CCOCC7)cc6c5)C[C@H]4COC(F)(F)F)ccc3C2=O)C(=O)N1 [Example 140, (3S)-3-(5-{[(3S,4S)-1-{[8-fluoro-3-(morpholin-4-yl)quinolin-6-yl]methyl}-4-[(trifluoromethoxy)methyl]pyrrolidin-3-yl]oxy}-1-oxo-2,3-dihydro-1H-isoindol-2-yl)piperidine-2,6-dione] | 1 nM | 25.3% | 1 nM | 8.3% | 56 nM | 24.8% | – | – |
| COC[C@@H]1CN(Cc2cc(F)c3nc(C4CN(C(C)=O)C4)ccc3c2)C[C@H]1Oc1ccc2c(c1)CN([C@H]1CCC(=O)NC1=O)C2=O [Example 36, (3S)-3-(5-{[(3S,4S)-1-{[2-(1-acetylazetidin-3-yl)-8-fluoroquinolin-6-yl]methyl}-4-(methoxymethyl)pyrrolidin-3-yl]oxy}-1-oxo-2,3-dihydro-1H-isoindol-2-yl)piperidine-2,6-dione] | 9 nM | 30.2% | 9 nM | 10.5% | 141 nM | 32.4% | – | – |
| COC[C@@H]1CN(Cc2ccc3cc(N4CCOCC4)cnc3c2)C[C@H]1Oc1ccc2c(c1)CN([C@H]1CCC(=O)NC1=O)C2=O [Example 102, (3S)-3-(5-{[(3S,4S)-4-(methoxymethyl)-1-{[3-(morpholin-4-yl)quinolin-7-yl]methyl}pyrrolidin-3-yl]oxy}-1-oxo-2,3-dihydro-1H-isoindol-2-yl)piperidine-2,6-dione] | 3 nM | 43.7% | 145 nM | 49.6% | 1020 nM | 90.7% | – | – |
| COC[C@@H]1CN(Cc2cc(F)c3nc(C4CCCCO4)ncc3c2)C[C@H]1Oc1ccc2c(c1)CN([C@H]1CCC(=O)NC1=O)C2=O (relative stereo) [Example 96, rel-(3S)-3-(5-{[(3S,4S)-1-{[8-fluoro-2-(oxan-2-yl)quinazolin-6-yl]methyl}-4-(methoxymethyl)pyrrolidin-3-yl]oxy}-1-oxo-2,3-dihydro-1H-isoindol-2-yl)piperidine-2,6-dione] | 7 nM | 29.4% | 9 nM | 11.4% | 123 nM | 28.4% | – | – |
| COC[C@@H]1CN(Cc2cc(F)c3nc(N4CCC45COC5)ccc3c2)C[C@H]1Oc1ccc2c(c1)CN([C@H]1CCC(=O)NC1=O)C2=O [Example 75, (3S)-3-(5-{[(3S,4S)-1-[(8-fluoro-2-{6-oxa-1-azaspiro [3.3]heptan-1-yl}quinolin-6-yl)methyl]-4-(methoxymethyl)pyrrolidin-3-yl]oxy}-1-oxo-2,3-dihydro-1H-isoindol-2-yl)piperidine-2,6-dione] | – | 31.2% | 1 nM | 10.1% | 11 nM | 56.6% | – | – |
| COC[C@@H]1CN(Cc2cc(F)c3nc(N4CCC45COC5)ncc3c2)C[C@H]1Oc1ccc2c(c1)CN([C@H]1CCC(=O)NC1=O)C2=O [Example 74, (3S)-3-(5-{[(3S,4S)-1-[(8-fluoro-2-{6-oxa-1-azaspiro[3.3]heptan-1-yl}quinazolin-6-yl)methyl]-4-(methoxymethyl)pyrrolidin-3-yl]oxy}-1-oxo-2,3-dihydro-1H-isoindol-2-yl)piperidine-2,6-dione] | 2 nM | 31.4% | 3 nM | 10.6% | 15 nM | 55.8% | – | – |
| O=C1CC[C@H](N2Cc3cc(O[C@H]4CN(Cc5cc(F)c6nc(C7CCOCC7)ccc6c5)C[C@@H]4c4ccncc4)ccc3C2=O)C(=O)N1 (relative stereo) [Example 149, ((S)-3-(5-(((3R*,4S*)-1-((8-fluoro-2-(tetrahydro-2H-pyran-4-yl)quinolin-6-yl)methyl)-4-(pyridin-4-yl)pyrrolidin-3-yl)oxy)-1-oxoisoindolin-2-yl)piperidine-2,6-dione] | 7 nM | 24.4% | 23 nM | 11.0% | 429 nM | 68.7% | – | – |

Source: US20250197374A1, “WEE1 DEGRADING COMPOUNDS AND USES THEREOF” (BRISTOL-MYERS SQUIBB COMPANY, priority 2023, published 2025)
